In one data set the target is T1, CYP2D6 (Homo sapiens, UniProt P10635).
T1 construct: from tissue; host or cells: pooled human liver microsomes
The data set can be described thus: Time-dependent inhibition of CYP450 enzymes in human liver microsomes: CYP2D6. Format: in vitro ADME. To be noted: for fold change in activity (time dependent inhibition), 2D6: human liver microsomes. How it is done:
(§1) An assessment of the time-dependent Inhibitory Potential of the test compounds against Principal Human Cytochrome P450 Isozymes using Human Liver Microsomes was also carried out using standard methods (Grimm et al, Drug Metab. Dispos., Jul; 37(7):1355-70. doi: 10.1124/dmd.109.026716, 2009). Pooled human microsomes and selective CYP probe substrates were used for in vitro assessment of test compounds at 25 and 50 μM as time-dependent inhibitors of […] human hepatic cytochrome P450 isozymes (CYP1A2, 2B6, 2C9, 2C19, 2D6, and 3A4). LC-MS/MS was used to quantify metabolite formation. The inhibition of each P450 enzyme in human liver microsomes was measured as the percentage decrease in the activity of marker metabolite formation as measured by LC-MS/MS compared to non-inhibited controls (=100% activity) at time zero and after 30 minutes incubation. The occurrence of any time dependent inhibition was then expressed as the fold change in enzyme activity at time zero relative to the activity after 30 minutes incubation. The time dependent inhibition for the compound 5-(3,4-difluorobenzyl)-8-((1 r,4r)-4-methylcyclohexyl)-6,9-dioxo-2,5, 8-triazaspiro [3.5]nonane-2-carbaldehyde (Compound 1) against CYP1A2, […], CYP2C8, CYP2C9, CYP2C19, CYP2D6, CYP3A4-M and CYP3A4-T is shown in Table B-12.

Data set [1] is described as follows: Dog cassette dosing IV pharmacokinetics. Format: in vivo. The settings on record: plasma, male beagle dogs. How it is done: Non-naïve male beagle dogs (8 months to 3 years of age, body weight 8-14 kg) sourced from Jiangsu Johnsen Bioresource CO. and/or Beijing Rixinkeji CO., LTD and/or Beijing Marshall Biotechnology CO., LTD were used in this study. All animals for IV administration had free access to food and water. The IV dose solution was prepared in 10% DMA/50% PG/40% HP0CD solution (40% w/v aqueous HP0CD) at a concentration of 0.2 mg/mL. Concentrations of IV dose was measured at the end of the study. PK parameters were calculated using the nominal dose values if the measured values were within 20% of the nominal values. Blood samples were collected by venipuncture of peripheral veins except the dosing vein at pre-dose, 5 15, 30 min, 1, 2, 4, 6, 8 and 24 h post-dose. Blood samples were centrifuged and resultant plasma was frozen for bioanalysis. Plasma samples were stored at −80° C. before analysis. Plasma samples were analyzed for compound concentrations using the LC/MS/MS method. Briefly, a 50 p L aliquot of each plasma sample was mixed with 100 μL of acetonitrile that contained an internal standard. The mixture was vortexed and centrifuged. Ten (10) μL of the resulting solution was injected onto a reverse-phase C18 column and the resultant peaks detected on a LC/MS/MS equipped with a turbo ionspray ionization source. Sample concentrations below the limit of quantification (BLQ) were treated as zero for PK calculations. […] The elimination rate constant (k) was calculated as the absolute value of the slope of the linear regression of logarithm (log) of the concentration versus time for the last three data points of the concentration-time profiles. Apparent elimination half-life (t½) values were calculated as 1n(2)/k. […] AUC values were calculated from the dosing time to the last measurable concentration. AUC∞ values were calculated as the sum of the corresponding AUC and the ratio of the last detectable concentration divided by k. Plasma clearance (CL) was calculated from Dose/AUC.. […] Vss was calculated from MRT∞×CL. Maximum concentration (Cmax) and time to reach Cmax (tmax) were recorded as observed. […]

Data set [2] is described as follows: Monkey cassette dosing IV pharmacokinetics. Format: in vivo. To be noted: male, plasma.
The next data set deals with T2, CYP2C9 (Homo sapiens, UniProt P11712).
T2 construct: from tissue; host or cells: pooled human liver microsomes
T2 sequence (P11712 whole entry): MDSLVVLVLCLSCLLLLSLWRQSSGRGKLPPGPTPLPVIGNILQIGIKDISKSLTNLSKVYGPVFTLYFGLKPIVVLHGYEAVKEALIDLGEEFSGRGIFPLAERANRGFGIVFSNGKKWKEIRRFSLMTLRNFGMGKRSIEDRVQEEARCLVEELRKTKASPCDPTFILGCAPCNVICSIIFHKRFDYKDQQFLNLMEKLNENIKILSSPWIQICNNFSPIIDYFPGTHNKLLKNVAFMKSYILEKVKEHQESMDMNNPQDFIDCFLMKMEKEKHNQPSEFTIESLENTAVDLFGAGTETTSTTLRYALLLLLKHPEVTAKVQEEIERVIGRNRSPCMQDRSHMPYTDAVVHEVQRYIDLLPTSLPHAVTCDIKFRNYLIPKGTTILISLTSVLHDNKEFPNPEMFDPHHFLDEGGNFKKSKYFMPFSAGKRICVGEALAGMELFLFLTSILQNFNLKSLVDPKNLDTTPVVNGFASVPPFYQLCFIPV
Put plainly: Time-dependent inhibition of CYP450 enzymes in human liver microsomes: CYP2C9. Format: in vitro ADME. How it is done:
as §1

The nature of data set [3]: Competitive slurry experiments between Form I and Form II. The format is physicochemical. The settings on record: competitive slurries of a mechanical mixture of Form I and Form II, range of temperatures (5-50). The source says: The results of the competitive slurry experiments are provided below in Table 6.

T1 sequence (P10635 whole entry): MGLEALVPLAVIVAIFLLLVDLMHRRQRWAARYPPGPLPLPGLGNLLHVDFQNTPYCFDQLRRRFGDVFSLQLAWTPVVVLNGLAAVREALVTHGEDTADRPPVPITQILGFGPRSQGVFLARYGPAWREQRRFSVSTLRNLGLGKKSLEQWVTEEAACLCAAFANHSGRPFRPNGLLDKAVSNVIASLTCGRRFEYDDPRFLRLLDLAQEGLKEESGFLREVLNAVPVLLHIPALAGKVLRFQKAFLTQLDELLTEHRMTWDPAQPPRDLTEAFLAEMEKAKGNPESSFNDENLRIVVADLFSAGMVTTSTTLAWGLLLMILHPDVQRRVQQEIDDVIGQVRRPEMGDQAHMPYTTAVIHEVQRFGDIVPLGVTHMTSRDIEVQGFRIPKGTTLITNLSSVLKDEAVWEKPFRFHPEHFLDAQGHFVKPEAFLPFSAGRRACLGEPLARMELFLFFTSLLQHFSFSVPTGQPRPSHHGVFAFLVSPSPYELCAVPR

As for `C[C@H]1CC[C@H](N2CC(=O)N(Cc3ccc(F)c(F)c3)C3(CN(C=O)C3)C2=O)CC1` [Compound 1, 5-(3,4-difluorobenzyl)-8-((1r,4r)-4-methylcyclohexyl)-6,9-dioxo-2,5,8-triazaspiro[3.5]nonane-2-carbaldehyde], the “(% Activity NADPH T0)/(% Activity NADPH T30)” value amounted to 1.3 at CYP2D6 (CYP2D6, 25 μM); 1.1 on CYP2D6 (CYP2D6, 50 μM); 1.0 on CYP2C9 (CYP2C9, 25 μM); 0.9 on CYP2C9 (CYP2C9, 50 μM). The “fold change in activity (time dependent inhibition), 2D6” value on CYP2D6 (25 μM) was 1.3 fold; at CYP2D6 (50 μM), “no change in activity”. The activity at 30 min, 25 µM on CYP2D6 (human, pooled human liver microsomes, CYP2D6, 25 μM, 30 minutes incubation, read-out: % Activity NADPH T30) amounted to 90%; at CYP2C9 (human, pooled human liver microsomes, CYP2C9, 25 μM, 30 minutes incubation, read-out: % Activity NADPH T30) it was 84%. Further, the activity at 0 min, 25 µM turned out to be 118% on CYP2D6 (human, pooled human liver microsomes, CYP2D6, 25 μM, time zero, read-out: % Activity NADPH T0) and 83% at CYP2C9 (human, pooled human liver microsomes, CYP2C9, 25 μM, time zero, read-out: % Activity NADPH T0). Moreover, the activity at 30 min, 50 µM at CYP2D6 (human, pooled human liver microsomes, CYP2D6, 50 μM, 30 minutes incubation, read-out: % Activity NADPH T30) came out at 88%; at CYP2C9 (human, pooled human liver microsomes, CYP2C9, 50 μM, 30 minutes incubation, read-out: % Activity NADPH T30), 71%. Moreover, the activity at 0 min, 50 µM stood at 93% on CYP2D6 (human, pooled human liver microsomes, CYP2D6, 50 μM, time zero, read-out: % Activity NADPH T0) and 63% at CYP2C9 (human, pooled human liver microsomes, CYP2C9, 50 μM, time zero, read-out: % Activity NADPH T0). For the same compound, the values for the clearance in data set [1] and in data set [2] were 5.12 mL/min/kg and 13.1 mL/min/kg, respectively. Moreover, the values for the half-life in data set [1] and in data set [2] were 11.8 h and 8.69 h, respectively. In addition, the Vd in data set [1] (read-out: Vss) was determined as 4.48 L/kg; in data set [2] (read-out: Vss), 8.8 L/kg.

As for `C[C@H]1CC[C@H](N2CC(=O)N(Cc3ccc(F)c(F)c3)C3(CN(C=O)C3)C2=O)CC1` [Form II, 5-(3,4-difluorobenzyl)-8-((1r,4r)-4-methylcyclohexyl)-6,9-dioxo-2,5,8-triazaspiro[3.5]nonane-2-carbaldehyde], the “relative thermodynamic stability of Form I and Form II” value in data set [3] was “most stable form”.
